Experimental data reported in US11897880B2, “7,8-dihydrobenzo[e]pyrido[3,4-c]azocine-2,5(3H,6H)-dione derivatives useful as a factor XIa inhibitors” (Janssen Pharmaceutica NV, priority 2021, dated 2024).
Where two headings read alike, the source gives them in different places.

Legend:
Factor XIa = Factor XIa (Homo sapiens, UniProt P03951); experiment: Factor XIa inhibition assay utilizing a fluorophore-quencher pair peptide substrate (FLINT); assay type: biochemical; settings: for Ki: read-out: FXIa Ki; for IC50: read-out: FXIa IC50
Chain of Factor XIa (P03951 388-625 limits assumed): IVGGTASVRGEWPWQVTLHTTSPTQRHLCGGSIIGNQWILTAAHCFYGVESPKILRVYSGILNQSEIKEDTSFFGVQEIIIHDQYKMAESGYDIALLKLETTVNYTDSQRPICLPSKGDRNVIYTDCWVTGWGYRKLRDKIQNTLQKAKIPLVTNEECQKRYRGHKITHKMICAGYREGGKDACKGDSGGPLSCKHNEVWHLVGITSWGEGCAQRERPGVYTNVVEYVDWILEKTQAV
Chain of Factor XIa (P03951 19-387 partner limits assumed): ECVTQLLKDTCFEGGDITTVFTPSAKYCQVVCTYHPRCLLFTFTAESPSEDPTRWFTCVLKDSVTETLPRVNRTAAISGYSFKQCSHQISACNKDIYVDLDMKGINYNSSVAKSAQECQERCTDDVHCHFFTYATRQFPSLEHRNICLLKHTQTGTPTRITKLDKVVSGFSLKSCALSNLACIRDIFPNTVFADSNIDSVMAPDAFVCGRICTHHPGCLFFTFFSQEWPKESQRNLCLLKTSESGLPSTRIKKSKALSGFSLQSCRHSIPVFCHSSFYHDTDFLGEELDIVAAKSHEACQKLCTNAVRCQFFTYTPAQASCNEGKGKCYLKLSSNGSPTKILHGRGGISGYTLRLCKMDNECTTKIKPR
How it was run: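 Enzyme preincubated 30 min at room temperature with compound (11-point 3-fold dilution, top 100 nM, 2% DMSO), then 15 μM 5Fam-KLTRAETV-K5Tamra substrate added. Buffer: 50 mM Tris pH 7.5, 100 mM NaCl, 5 mM CaCl2, 0.1 mg/mL BSA, 0.03% CHAPS. Fluorescence (485/520 nm) read kinetically over 30 min; IC50 from 4-parameter logistic fit.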

human plasma kallikrein = human plasma kallikrein (Homo sapiens, UniProt P03952); experiment: Kallikrein inhibition assay utilizing a quenched AMC peptide substrate (FLINT); assay type: biochemical; settings: 30 min preincubation, 50 μM Z-Gly-Pro-Arg-AMC, 2 nM kallikrein
Chain of human plasma kallikrein (P03952 391-638 limits assumed): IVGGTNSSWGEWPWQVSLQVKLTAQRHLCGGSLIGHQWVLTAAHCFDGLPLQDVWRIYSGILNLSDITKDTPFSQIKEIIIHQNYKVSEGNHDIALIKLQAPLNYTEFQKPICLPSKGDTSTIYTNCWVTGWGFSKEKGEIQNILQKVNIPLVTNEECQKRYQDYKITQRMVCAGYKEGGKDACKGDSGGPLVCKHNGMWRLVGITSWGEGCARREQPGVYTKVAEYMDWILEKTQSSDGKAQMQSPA
Chain of human plasma kallikrein (P03952 20-390 partner limits assumed): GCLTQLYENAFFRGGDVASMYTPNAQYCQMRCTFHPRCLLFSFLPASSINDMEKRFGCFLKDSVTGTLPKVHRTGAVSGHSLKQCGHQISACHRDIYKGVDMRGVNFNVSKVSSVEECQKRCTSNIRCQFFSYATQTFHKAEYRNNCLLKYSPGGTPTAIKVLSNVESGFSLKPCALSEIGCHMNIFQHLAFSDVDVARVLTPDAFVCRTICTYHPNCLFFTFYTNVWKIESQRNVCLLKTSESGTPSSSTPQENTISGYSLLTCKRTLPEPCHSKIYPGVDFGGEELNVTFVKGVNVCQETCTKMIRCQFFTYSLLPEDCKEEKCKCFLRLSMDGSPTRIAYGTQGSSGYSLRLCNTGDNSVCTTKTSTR
How it was run: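 Human plasma kallikrein (2 nM final) was preincubated 30 min at room temperature with compound (11-point 3-fold dilution, top 1 μM, 2% DMSO) in pH 7.5 Tris buffer with CaCl2, BSA and CHAPS. Z-Gly-Pro-Arg-AMC (50 μM final) fluorescence was read at 340/440 nm every 5 min for 30 min. IC50 came from a 4-parameter logistic fit.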

[1] = cells that print μM themselves in the nM column
[2] = cells that print μM themselves in the nM column, same assay conditions
[3] = 30 min preincubation, 5Fam-KLTRAETV-K5Tamra substrate 15 μM final, kinetic reads

Cn1ccc(-c2cnc(C(CC3CC3)n3cc4c(cc3=O)-c3c(ccc(Cl)c3F)CC3(CC3)NC4=O)[nH]2)cc1=O (single isomer, unassigned) [Compound 68, (R*)-11-chloro-3-(2-cyclopropyl-1-(5-(1-methyl-2-oxo-1,2-dihydropyridin-4-yl)-1H-imidazol-2-yl)ethyl)-12-fluoro-3H-spiro[benzo[e]pyrido[3,4-c]azocine-7,1′-cyclopropane]-2,5(6H,8H)-dione]
Ki (Factor XIa; [1]): 1.12 µM
IC50 (Factor XIa; [2]): 2.24 µM
IC50 (human plasma kallikrein): > 10000 nM

Cn1ccc(-c2cnc([C@H](CC3CC3)n3cc4c(cc3=O)-c3c(ccc(Cl)c3F)CC3(CC3)NC4=O)[nH]2)cc1=O (single isomer, unassigned) [Compound 69, (S*)-11-chloro-3-(2-cyclopropyl-1-(5-(1-methyl-2-oxo-1,2-dihydropyridin-4-yl)-1H-imidazol-2-yl)ethyl)-12-fluoro-3H-spiro[benzo[e]pyrido[3,4-c]azocine-7,1′-cyclopropane]-2,5(6H,8H)-dione]
IC50 (Factor XIa; [3]): 0.108 µM
Ki (Factor XIa): 0.0541 µM
IC50 (human plasma kallikrein): 8080 nM

O=C1NC2(CC2)Cc2ccc(Cl)c(F)c2-c2cc(=O)n3c(c21)CC[C@H]3c1ncc(-c2ccn3c(Br)cnc3c2)[nH]1 (single isomer, unassigned) [Compound 71, (*S)-12-(5-(3-Bromoimidazo[1,2-a]pyridin-7-yl)-1H-imidazol-2-yl)-7-chloro-8-fluoro-13,14-dihydro-2H-spiro[benzo[5,6]azocino[4,3-g]indolizine-3,1′-cyclopropane]-1,10(4H,12H)-dione]
Ki (Factor XIa; [1]): > 5 µM
IC50 (Factor XIa; [2]): > 10 µM
IC50 (human plasma kallikrein): > 10000 nM

O=C1NC2(CC2)Cc2ccc(Cl)c(F)c2-c2cc(=O)n3c(c21)CCC3c1ncc(-c2ccn3c(Br)cnc3c2)[nH]1 (single isomer, unassigned) [Compound 72, (*R)-12-(5-(3-Bromoimidazo[1,2-a]pyridin-7-yl)-1H-imidazol-2-yl)-7-chloro-8-fluoro-13,14-dihydro-2H-spiro[benzo[5,6]azocino[4,3-g]indolizine-3,1′-cyclopropane]-1,10(4H,12H)-dione]
IC50 (Factor XIa; [3]): 0.0267 µM
Ki (Factor XIa): 0.0133 µM
IC50 (human plasma kallikrein): 3540 nM

Cc1nc2cc(-c3cnc([C@@H]4CCc5c6c(cc(=O)n54)-c4c(ccc(Cl)c4F)CC4(CC4)NC6=O)[nH]3)ccc2s1 (stereo in doubt) [Compound 4, (S*)-7-chloro-8-fluoro-12-(5-(2-methylbenzo[d]thiazol-5-yl)-1H-imidazol-2-yl)-13,14-dihydro-2H-spiro[benzo[5,6]azocino[4,3-g]indolizine-3,1′-cyclopropane]-1,10(4H,12H)-dione]
Ki (Factor XIa; [1]): 1.15 µM
IC50 (Factor XIa; [2]): 2.29 µM
IC50 (human plasma kallikrein): > 10000 nM

Cc1nc2cc(-c3cnc([C@H]4CCc5c6c(cc(=O)n54)-c4c(ccc(Cl)c4F)CC4(CC4)NC6=O)[nH]3)ccc2s1 (stereo in doubt) [Compound 5, (R*)-7-chloro-8-fluoro-12-(5-(2-methylbenzo[d]thiazol-5-yl)-1H-imidazol-2-yl)-13,14-dihydro-2H-spiro[benzo[5,6]azocino[4,3-g]indolizine-3,1′-cyclopropane]-1,10(4H,12H)-dione]
IC50 (Factor XIa; [3]): 0.0021 µM
Ki (Factor XIa): 0.001 µM
IC50 (human plasma kallikrein): 60 nM

O=C1NC2(CC2)Cc2ccc(Cl)c(F)c2-c2cc(=O)n3c(c21)CC[C@@H]3c1ncc(-c2ccc3[nH]cnc3c2)[nH]1 (stereo in doubt) [Compound 6, (R*)-12-(5-(1H-benzo[d]imidazol-5-yl)-1H-imidazol-2-yl)-7-chloro-8-fluoro-13,14-dihydro-2H-spiro[benzo[5,6]azocino[4,3-g]indolizine-3,1′-cyclopropane]-1,10(4H,12H)-dione]
IC50 (Factor XIa; [3]): 0.0006 µM
Ki (Factor XIa): 0.0003 µM
IC50 (human plasma kallikrein): 60 nM

O=C1NC2(CC2)Cc2ccc(Cl)c(F)c2-c2cc(=O)n3c(c21)CC[C@H]3c1ncc(-c2ccn3ccnc3c2)[nH]1 (stereo in doubt) [Compound 7, (S*)-7-chloro-8-fluoro-12-(5-(imidazo[1,2-a]pyridin-7-yl)-1H-imidazol-2-yl)-13,14-dihydro-2H-spiro[benzo[5,6]azocino[4,3-g]indolizine-3,1′-cyclopropane]-1,10(4H,12H)-dione]
IC50 (Factor XIa; [3]): 0.0023 µM
Ki (Factor XIa): 0.0011 µM
IC50 (human plasma kallikrein): 420 nM

O=C1NC2(CC2)Cc2ccc(Cl)c(F)c2-c2cc(=O)n3c(c21)CC[C@@H]3c1ncc(-c2ccn3ccnc3c2)[nH]1 (stereo in doubt) [Compound 8, (R*)-7-chloro-8-fluoro-12-(5-(imidazo[1,2-a]pyridin-7-yl)-1H-imidazol-2-yl)-13,14-dihydro-2H-spiro[benzo[5,6]azocino[4,3-g]indolizine-3,1′-cyclopropane]-1,10(4H,12H)-dione]
IC50 (Factor XIa; [3]): 0.0019 µM
Ki (Factor XIa): 0.0009 µM
IC50 (human plasma kallikrein): 470 nM

O=C1NC2(CC2)Cc2ccc(Cl)c(F)c2-c2cc(=O)n3c(c21)CC[C@H]3c1ncc(-c2ccn3cnnc3c2)[nH]1 (stereo in doubt) [Compound 15, (S*)-12-(5-([1,2,4]triazolo[4,3-a]pyridin-7-yl)-1H-imidazol-2-yl)-7-chloro-8-fluoro-13,14-dihydro-2H-spiro[benzo[5,6]azocino[4,3-g]indolizine-3,1′-cyclopropane]-1,10(4H,12H)-dione]
Ki (Factor XIa; [1]): 2.91 µM
IC50 (Factor XIa; [2]): 5.82 µM
IC50 (human plasma kallikrein): > 10000 nM

O=C1NC2(CC2)Cc2ccc(Cl)c(F)c2-c2cc(=O)n3c(c21)CC[C@@H]3c1ncc(-c2ccn3cnnc3c2)[nH]1 (stereo in doubt) [Compound 18, (R*)-12-(5-([1,2,4]triazolo[4,3-a]pyridin-7-yl)-1H-imidazol-2-yl)-7-chloro-8-fluoro-13,14-dihydro-2H-spiro[benzo[5,6]azocino[4,3-g]indolizine-3,1′-cyclopropane]-1,10(4H,12H)-dione]
IC50 (Factor XIa; [3]): 0.0132 µM
Ki (Factor XIa): 0.0066 µM
IC50 (human plasma kallikrein): 820 nM

O=C1NC2(CC2)Cc2ccc(Cl)c(F)c2-c2cc(=O)n3c(c21)CC[C@@H]3c1ncc(-c2ccc3[nH]ncc3c2)[nH]1 (stereo in doubt) [Compound 19, (R*)-12-(5-(1H-indazol-5-yl)-1H-imidazol-2-yl)-7-chloro-8-fluoro-13,14-dihydro-2H-spiro[benzo[5,6]azocino[4,3-g]indolizine-3,1′-cyclopropane]-1,10(4H,12H)-dione]
IC50 (Factor XIa; [3]): 0.001 µM
Ki (Factor XIa): 0.0005 µM
IC50 (human plasma kallikrein): 20 nM

O=C1NC2(CC2)Cc2ccc(Cl)c(F)c2-c2cc(=O)n3c(c21)CC[C@@H]3c1ncc(-c2ccc3cncn3c2)[nH]1 (stereo in doubt) [Compound 22, (R*)-7-chloro-8-fluoro-12-(5-(imidazo[1,5-a]pyridin-6-yl)-1H-imidazol-2-yl)-13,14-dihydro-2H-spiro[benzo[5,6]azocino[4,3-g]indolizine-3,1′-cyclopropane]-1,10(4H,12H)-dione]
Ki (Factor XIa; [1]): 2.54 µM
IC50 (Factor XIa; [2]): 5.07 µM
IC50 (human plasma kallikrein): > 10000 nM

O=C1NC2(CC2)Cc2ccc(Cl)c(F)c2-c2cc(=O)n3c(c21)CC[C@H]3c1ncc(-c2ccc3cncn3c2)[nH]1 (stereo in doubt) [Compound 23, (S*)-7-chloro-8-fluoro-12-(5-(imidazo[1,5-a]pyridin-6-yl)-1H-imidazol-2-yl)-13,14-dihydro-2H-spiro[benzo[5,6]azocino[4,3-g]indolizine-3,1′-cyclopropane]-1,10(4H,12H)-dione]
IC50 (Factor XIa; [3]): 0.007 µM
Ki (Factor XIa): 0.0035 µM
IC50 (human plasma kallikrein): 540 nM

COCCN1C(=O)c2c(cc(=O)n3c2CC[C@@H]3c2ncc(-c3ccc(N)nc3F)[nH]2)-c2c(ccc(Cl)c2F)CC12CC2 (stereo in doubt) [Compound 24, (R*)-12-(5-(6-amino-2-fluoropyridin-3-yl)-1H-imidazol-2-yl)-7-chloro-8-fluoro-2-(2-methoxyethyl)-13,14-dihydro-2H-spiro[benzo[5,6]azocino[4,3-g]indolizine-3,1′-cyclopropane]-1,10(4H,12H)-dione]
IC50 (Factor XIa; [3]): > 0.01 µM
Ki (Factor XIa; [1]): > 5 µM
IC50 (human plasma kallikrein): > 10000 nM

COCCN1C(=O)c2c(cc(=O)n3c2CC[C@H]3c2ncc(-c3ccc(N)nc3F)[nH]2)-c2c(ccc(Cl)c2F)CC12CC2 (stereo in doubt) [Compound 25, (S*)-12-(5-(6-amino-2-fluoropyridin-3-yl)-1H-imidazol-2-yl)-7-chloro-8-fluoro-2-(2-methoxyethyl)-13,14-dihydro-2H-spiro[benzo[5,6]azocino[4,3-g]indolizine-3,1′-cyclopropane]-1,10(4H,12H)-dione]
IC50 (Factor XIa; [3]): 0.26 µM
Ki (Factor XIa): 0.13 µM
IC50 (human plasma kallikrein): > 10000 nM

O=C1NC2(CC2)Cc2ccc(Cl)c(F)c2-c2cc(=O)n3c(c21)CC[C@@H]3c1ncc(-c2ccc3scnc3c2)[nH]1 (stereo in doubt) [Compound 26, (R*)-12-(5-(benzo[d]thiazol-5-yl)-1H-imidazol-2-yl)-7-chloro-8-fluoro-13,14-dihydro-2H-spiro[benzo[5,6]azocino[4,3-g]indolizine-3,1′-cyclopropane]-1,10(4H,12H)-dione]
IC50 (Factor XIa; [3]): 0.0005 µM
Ki (Factor XIa): 0.0003 µM
IC50 (human plasma kallikrein): 70 nM

O=C1NC2(CC2)Cc2ccc(Cl)c(F)c2-c2cc(=O)n3c(c21)CC[C@H]3c1ncc(-c2ccc3scnc3c2)[nH]1 (stereo in doubt) [Compound 27, (S*)-12-(5-(benzo[d]thiazol-5-yl)-1H-imidazol-2-yl)-7-chloro-8-fluoro-13,14-dihydro-2H-spiro[benzo[5,6]azocino[4,3-g]indolizine-3,1′-cyclopropane]-1,10(4H,12H)-dione]
Ki (Factor XIa; [1]): 1.19 µM
IC50 (Factor XIa; [2]): 2.39 µM
IC50 (human plasma kallikrein): > 10000 nM
